The text below walks through data of patent US11780845B2 (Relay Therapeutics, Inc., priority 2019, dated 2023).

For one experiment, the system named is SNU-16. The experiment in a line: Cell SNU-16 assay. The format is cell-based. The settings on record: Homo sapiens, SNU-16, SNU-16 cells.
The target in another experiment is FGFR2 (Homo sapiens (Human), UniProt P21802). The experiment in a line: Biochemical FGFR2 Caliper assay.
Sequence of FGFR2 (P21802 22-821): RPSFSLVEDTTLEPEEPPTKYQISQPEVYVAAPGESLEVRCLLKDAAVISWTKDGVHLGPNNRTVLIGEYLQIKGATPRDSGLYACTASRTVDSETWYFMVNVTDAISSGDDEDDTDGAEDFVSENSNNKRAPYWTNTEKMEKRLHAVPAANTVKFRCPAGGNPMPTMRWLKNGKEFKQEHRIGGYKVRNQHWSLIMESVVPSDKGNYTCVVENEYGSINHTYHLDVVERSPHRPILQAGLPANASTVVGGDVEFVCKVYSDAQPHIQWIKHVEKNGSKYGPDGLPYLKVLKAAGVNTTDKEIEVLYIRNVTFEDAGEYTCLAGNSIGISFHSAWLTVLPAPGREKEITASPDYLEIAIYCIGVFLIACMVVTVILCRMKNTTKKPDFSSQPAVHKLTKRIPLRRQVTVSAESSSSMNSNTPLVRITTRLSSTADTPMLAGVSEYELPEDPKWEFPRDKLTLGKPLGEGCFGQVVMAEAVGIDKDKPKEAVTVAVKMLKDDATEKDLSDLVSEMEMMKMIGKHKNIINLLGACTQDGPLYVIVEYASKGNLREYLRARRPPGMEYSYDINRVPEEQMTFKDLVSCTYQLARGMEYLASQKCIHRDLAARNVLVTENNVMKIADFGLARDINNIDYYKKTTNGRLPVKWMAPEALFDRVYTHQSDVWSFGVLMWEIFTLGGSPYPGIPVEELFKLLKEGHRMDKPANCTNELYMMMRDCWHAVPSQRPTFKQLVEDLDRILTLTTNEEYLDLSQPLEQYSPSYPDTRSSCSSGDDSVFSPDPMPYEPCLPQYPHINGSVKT

Usually IC50 stands for the concentration that inhibits the measured activity by half. The low end stands for greater potency in that assay, the high end for weaker potency in that assay. Regarding `CC1=CCN(c2ccc(-c3c(-c4ccc(Oc5nccc(C)n5)cc4)c4c(N)ncnc4n3C)cn2)C1=O` [Example 1078], the IC50 with SNU-16 is ≤ 100 nM; against FGFR2, < 100 nM.
For the compound `Cc1ccnc(Oc2ccc(-c3c(C4=CCN(C(=O)[C@@H]5CO5)C4)n(C)c4ncnc(N)c34)cc2)n1` (single isomer, unassigned) [Example 909], the IC50 in the experiment with SNU-16 and against FGFR2 was 1000 to 100000 nM in each case.
As for `C#Cc1ccc2ccc(-c3c(-c4ccc(Oc5nccc(C)n5)c(F)c4)c4c(N)ncnc4n3C)cc2n1` [Example 1412], the IC50 in the experiment on SNU-16 and against FGFR2 was 250 to 1000 nM throughout.
Take `CC1=C[C@H](C)N(c2ccc(-c3c(-c4ccc(Oc5nccc(C)n5)cc4)c4c(N)ncnc4n3C)cc2)C1=O` [Example 1118]: the IC50 is ≤ 100 nM in the experiment on SNU-16 and < 100 nM against FGFR2.
The like results for `C#Cc1cc(C)c(-c2c(-c3ccc(Oc4ccn(C)n4)c(F)c3)c3c(N)ncnc3n2C)cn1` [Example 1246] were, in that order, ≤ 100 nM and < 100 nM.
The like results for `C=C(C)C(=O)Nc1ccc(-c2c(-c3ccc(-c4noc(C5CC5)n4)c(O)c3)c3c(N)ncnc3n2C)cc1` [Example 1373] were, in that order, 100 to 250 nM and < 100 nM.
Turning to `C#Cc1ncc(-c2c(-c3ccc(C(=O)N4CCC[C@H]4C#C)cc3)c3c(N)ncnc3n2C)c(C)n1` [Example 1184], the IC50 with SNU-16 and on FGFR2 was 1000 to 100000 nM throughout.
For `C=C(C)C(=O)Nc1ccc(-c2c(-c3ccc(C(=O)N[C@H]4C[C@H](F)C4)c(OC4CC4)c3)c3c(N)ncnc3n2C)cc1` [Example 978], the 50% inhibitory concentration (IC50) with SNU-16 and against FGFR2 was 250 to 1000 nM throughout.
On to `C=C(C)C(=O)Nc1ccc(-c2c(-c3cc4cccnc4s3)c3c(N)ncnc3n2C)cc1` [Example 1270], for which the IC50 in the experiment with SNU-16 and against FGFR2 was 250 to 1000 nM throughout.
For the compound `COC(=O)/C=C/CNc1ccc(-c2c(-c3ccc(Oc4nccc(C)n4)c(F)c3)c3c(N)ncnc3n2C)cc1` [Example 1265], the values for the IC50 in the experiment with SNU-16 and at FGFR2 were 100 to 250 nM and < 100 nM, respectively.
In the case of `C#Cc1ccc(-c2c(C3=CC[C@@H](C(=O)N4CCC[C@H]4C#N)CC3)c3c(N)ncnc3n2C)c(C)n1` (single isomer, unassigned) [Example 1235], the IC50 is ≤ 100 nM with SNU-16 and < 100 nM at FGFR2.
The like results for `Cc1ccnc(Oc2ccc(-c3c(-c4ccc(NC(=O)/C=C/CN(C)C)cc4)n(C)c4ncnc(N)c34)cc2)n1` [Example 1041] were, in that order, ≤ 100 nM and 100 to 250 nM.
In the case of `C=C(C)C(=O)Nc1ccc(-c2c(C3=CC[C@@H](C(=O)N4CCCCCC4)CC3)c3c(N)ncnc3n2C)cc1` (single isomer, unassigned) [Example 979], the IC50 in the experiment with SNU-16 and on FGFR2 was 250 to 1000 nM throughout.
Turning to `C=C(C)C(=O)Nc1ccc(-c2c(-c3ccc(C(=O)NC4CCC4)c(OC)c3)c3c(N)ncnc3n2C)cc1` [Example 911], the IC50 in the experiment with SNU-16 was ≤ 100 nM; against FGFR2, < 100 nM.
The like results for `C#Cc1ncc(-c2c(-c3ccc(Oc4nccc(C)n4)cc3)c3c(N)ncnc3n2C)cc1C#N` [Example 1188] were, in that order, ≤ 100 nM and < 100 nM.
The like results for `C=C(C)C(=O)Nc1ccc(-c2c(-c3ccc4cnccc4c3)c3c(N)ncnc3n2C)cc1` [Example 1286] were, in that order, 250 to 1000 nM and 250 to 1000 nM.
The like results for `Cn1c(-c2ccc(NC(=O)CCl)cc2)c(C2=CC[C@H](C(=O)N3CCCC3)CC2)c2c(N)ncnc21` (single isomer, unassigned) [Example 905] were, in that order, ≤ 100 nM and 100 to 250 nM.
Take `C=C(C)C(=O)Nc1ccc(-c2c(-c3ccc(-c4cccnc4)s3)c3c(N)ncnc3n2C)cc1` [Example 1271]: the IC50 in the experiment on SNU-16 and on FGFR2 was 1000 to 100000 nM in each case.
In the case of `C=CC(=O)N1CCC(c2c(-c3ccc(N4CCCC4)c(C(F)(F)F)c3)c3c(N)ncnc3n2C)C1` (centres unmarked) [Example 800], the values for the half-maximal inhibitory concentration (IC50) in the experiment with SNU-16 and on FGFR2 were ≤ 100 nM and < 100 nM, respectively.
